Data taken from the supplement of paper PMC10307832.

compound: C1=CC2=NC=CN=C2C=C1/C=C/3\C(=O)NC(=O)S3 + C[C@]1(O)C[C@@H](c2nc(-c3ccc4ccc(-c5ccccc5)nc4c3)c3c(N)nccn32)C1 [Linsitinib] (partner 1 µM); assay: relative viability (nuclei count vs DMSO), 5 days (fraction); higher = more cells survive; conditions: first compound 0.02 µM
Outline: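 Lung cancer cell lines in 1536-well plates were dosed by pin tool the day after seeding, either with one drug alone or with a fixed anchor-drug dose plus five library-drug doses (not always all listed) in √10 steps. After 5 days, cells were fixed and their nuclei stained in one step (final 0.05% Triton X-100, 1% formaldehyde, 1 ug/ml Hoechst), then counted on 4× images. Relative viability is the nuclei count in treated wells divided by that in vehicle wells. Values are medians of duplicate plates.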

Cell Line	relative viability
LU99A	0.597
BEN	0.812
HARA	0.96
HCC-78	0.488
NCI-H322M	1.06
LCLC-97TM1	0.23
NCI-H2009	1.16
A-427	1.07
NCI-H661	0.59
NCI-H1734	0.856
NCI-H460	0.718
NCI-H2347	1.01
SK-LU-1	1.2
201T	0.807
NCI-H1915	1.1
HCC-827	0.944

Cell Line	relative viability
LXF-289	0.928
NCI-H23	0.575
NCI-H647	1.13
CAL-12T	0.679
NCI-H1651	0.894
EPLC-272H	1.09
NCI-H2228	0.622
NCI-H1792	0.519
NCI-H1355	0.805
NCI-H3122	1.01
NCI-H1437	0.899
NCI-H1755	0.927
NCI-H2023	0.626
HCC-15	0.824
PC-14	0.88
EKVX	0.772

same assay, conditions: first compound 0.06325 µM

Cell Line	relative viability
LU99A	0.559
BEN	0.922
HARA	0.829
HCC-78	0.517
NCI-H322M	0.85
LCLC-97TM1	0.188
NCI-H2009	1.26
A-427	1.16
NCI-H661	0.501
NCI-H460	1.32
NCI-H2347	0.957
SK-LU-1	1.22
201T	1.07
NCI-H1915	1.18
HCC-827	0.928
LXF-289	0.921

Cell Line	relative viability
NCI-H23	0.649
NCI-H647	1.51
CAL-12T	0.844
NCI-H1651	1.03
EPLC-272H	1.25
NCI-H2228	0.447
NCI-H1792	0.309
NCI-H1355	0.782
NCI-H3122	1.15
NCI-H1437	1.2
NCI-H1755	0.995
NCI-H2023	0.787
HCC-15	0.868
PC-14	0.952
EKVX	0.845

same assay, conditions: first compound 0.2 µM

Cell Line	relative viability
LU99A	0.561
BEN	0.899
HARA	1.08
HCC-78	0.54
NCI-H322M	0.982
LCLC-97TM1	0.203
NCI-H2009	1.26
A-427	1.12
NCI-H661	0.606
NCI-H1734	0.853
NCI-H460	0.787
NCI-H2347	0.957
SK-LU-1	1.15
201T	0.997
NCI-H1915	1.11
HCC-827	1
